Experimental findings from patent publication US5698538A, “Boronic acid and ester inhibitors of thrombin” (The DuPont Merck Pharmaceutical Company, priority 1996, dated 1997) are described below.

What all share (assay type): biochemical
Test [1] deals with T1, human thrombin (Homo sapiens, UniProt P00734).
T1 construct: purchased Enzyme Research Laboratories, South Bend, Ind
In words: Inhibition of human thrombin (chromogenic substrate S2238), inhibitory constant Ki. The following applies: 0.2-0.5 nM human thrombin, S2238, pH 7.5, 30 minutes; read-out: Ki values for inhibition of Serine Proteases: Thrombin. On the procedure: (§1) The effectiveness of compounds of the present invention as inhibitors of blood coagulation proteases was determined using purified human proteases and synthetic substrates following procedures similar to those described in Kettner et al. (1990).
(§2) For these assays, the rate of enzymatic (thrombin, Factor Xa, and Factor VIIa) hydrolysis of chromogenic substrates (S2238 (H-D-Phe-Pip-Arg-pNA), S2222, and S2288, respectively; Kabi Pharmacia, Franklin, Ohio.) was measured both in the absence and presence of compounds of the present invention. […] A decrease in the rate of absorbance change at 405 nm in the presence of inhibitor is indicative of enzyme inhibition. The results of this assay are expressed as inhibitory constant, Ki.
(§3) Thrombin and Xa determinations were made in 0.10M sodium phosphate buffer, pH 7.5, containing 0.20M NaCl, and 0.5% PEG 8000. VIIa determinations were made in 0.05M tris buffer, pH 7.6, containing 0.10M NaCl, 4 mM CaCl2, and 0.1% bovine serum albumin. The Michaelis constant, Km, for substrate hydrolysis was determined at 5° C. using the method of Lineweaver and Burk.
(§4) Values of Ki were determined by allowing 0.2-0.5 nM human thrombin or human factor Xa (Enzyme Research Laboratories, South Bend, Ind.), or 50 nM human factor VIIa (BiosPacific, Emeryville, Calif.) react with the substrate (0.20 mM-1 mM) in the presence of inhibitor. Reactions were allowed to go for 30 minutes and the velocities (rate of absorbance change vs time) were measured in the time frame of 25-30 minutes. The following relationship was used to calculate Ki values. [formula] where: vo is the velocity of the control in the absence of inhibitor;
(§5) vs is the velocity in the presence of inhibitor;
(§6) I is the concentration of inhibitor;
(§7) Ki is the dissociation constant of the enzyme: inhibitor complex;
(§8) S is the concentration of substrate;
(§9) Km is the Michaelis constant.

Test [2] concerns the target T2, human factor Xa (Homo sapiens, UniProt P00742).
T2 construct: purchased Enzyme Research Laboratories, South Bend, Ind
In words: Inhibition of human factor Xa (chromogenic substrate S2222), inhibitory constant Ki. Particulars: S2222, pH 7.5, 30 minutes, read-out: Ki values for inhibition of Serine Proteases: Factor Xa. How it is done: as §1, §2, §3, §4, §5, §6, §7, §8, §9

Test [3] addresses T3, human factor VIIa (Homo sapiens, UniProt P08709).
T3 construct: Factor VIIa in the extrinsic pathway; purchased BiosPacific, Emeryville, Calif
T3 sequence (P08709 213-466 limits assumed): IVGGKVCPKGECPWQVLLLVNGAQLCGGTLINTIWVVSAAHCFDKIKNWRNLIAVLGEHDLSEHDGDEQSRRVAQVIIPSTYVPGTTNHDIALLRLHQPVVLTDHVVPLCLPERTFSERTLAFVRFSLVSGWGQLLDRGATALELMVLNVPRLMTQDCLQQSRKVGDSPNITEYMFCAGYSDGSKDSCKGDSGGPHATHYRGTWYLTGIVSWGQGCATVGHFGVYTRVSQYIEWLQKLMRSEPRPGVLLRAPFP
T3 sequence (P08709 61-212 partner limits assumed): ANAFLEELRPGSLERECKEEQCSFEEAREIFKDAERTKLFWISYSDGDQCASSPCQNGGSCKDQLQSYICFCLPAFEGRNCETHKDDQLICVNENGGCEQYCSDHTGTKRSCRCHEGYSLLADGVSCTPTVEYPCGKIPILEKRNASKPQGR
In words: Inhibition of human factor VIIa (chromogenic substrate S2288), inhibitory constant Ki. How it is done: as §1, §2, §3, §4, §5, §6, §7, §8, §9

[4] abbreviates: 50 nM human factor VIIa, S2288, pH 7.6, 4 mM CaCl2, 30 minutes, read-out: Ki values for inhibition of Serine Proteases: Factor VIIa.

A word on the Ki: it is the dissociation constant of the complex between target and ligand, obtained from inhibition or displacement.

The structures appear in SMILES notation. Counter-ions that a name gives are not always drawn. Like-named read-outs stand apart in the source and are kept apart here.

T2 sequence (P00742 235-488 limits assumed): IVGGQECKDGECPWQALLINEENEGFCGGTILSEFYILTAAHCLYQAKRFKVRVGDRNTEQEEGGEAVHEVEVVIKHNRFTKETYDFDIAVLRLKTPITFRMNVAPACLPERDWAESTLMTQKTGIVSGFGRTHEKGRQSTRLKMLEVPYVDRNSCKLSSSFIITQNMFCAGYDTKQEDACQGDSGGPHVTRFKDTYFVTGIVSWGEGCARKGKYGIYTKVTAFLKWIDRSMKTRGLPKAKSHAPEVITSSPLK
T2 sequence (P00742 41-179 partner limits assumed): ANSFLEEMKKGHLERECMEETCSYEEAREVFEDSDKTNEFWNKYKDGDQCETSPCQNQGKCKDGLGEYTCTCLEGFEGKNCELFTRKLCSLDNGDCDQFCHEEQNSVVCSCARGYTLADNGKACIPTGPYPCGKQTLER

With `CSCc1nc(Cc2ccccc2)n(CC(=O)N[C@@H](CCCCN)B2O[C@@H]3C[C@@H]4C[C@@H](C4(C)C)[C@]3(C)O2)n1` [Example 892], the inhibitory constant (Ki) in test [1] was less than 500 nM; in test [2], 500 to 50000 nM; in test [3] (setting [4]) it was 500 to 50000 nM.

For `CC1(C)[C@@H]2C[C@H]3OB([C@H](CCCCN)NC(=O)Cn4nc(CC#N)nc4Cc4ccccc4)O[C@@]3(C)[C@H]1C2` [Example 898, R-N^1-(3-Cyanomethyl-5-phenylmethyl-1,2,4-triazol-1-yl)acetyl-borolysine, (+)-pinanediol ester, hydrochloride], the Ki is less than 500 nM in test [1], 500 to 50000 nM in test [2] and 500 to 50000 nM in test [3].

Turning to `CC1(C)[C@@H]2C[C@H]3OB([C@H](CCCCN)NC(=O)Cn4nc(CC(=O)O)nc4Cc4ccccc4)O[C@@]3(C)[C@H]1C2` [Example 905], the Ki is less than 50000 nM in test [1], 500 to 50000 nM in test [2] and more than 500000 nM in test [3] (setting [4]).

Consider `CC1(C)[C@@H]2C[C@H]3OB([C@H](CCCCN)NC(=O)Cn4nc(CO)nc4Cc4ccccc4)O[C@@]3(C)[C@H]1C2` [Example 913], for which the figures for the inhibitory constant (Ki) in test [1], in test [2] and in test [3] (setting [4]) were less than 500 nM, more than 500000 nM and 500 to 50000 nM, respectively.

Consider `CC1(C)[C@@H]2C[C@H]3OB([C@H](CCCCN)NC(=O)Cn4nc(COCc5ccccc5)nc4Cc4ccccc4)O[C@@]3(C)[C@H]1C2` [Example 914], for which the inhibitory constant (Ki) in test [1] is less than 500 nM; in test [2], 500 to 50000 nM; in test [3] (setting [4]), 500 to 50000 nM.

Turning to `COC(=O)Cc1nc(Cc2ccccc2)n(CC(=O)N[C@@H](CCCCN)B2O[C@@H]3C[C@@H]4C[C@@H](C4(C)C)[C@]3(C)O2)n1` [Example 917], the Ki in test [1] is less than 500 nM; in test [2], 500 to 50000 nM; in test [3] (setting [4]), 500 to 50000 nM.

For the molecule `CC1(C)[C@@H]2C[C@H]3OB([C@H](CCCCN)NC(=O)Cn4nc(Cc5ccccc5)nc4Cc4ccccc4)O[C@@]3(C)[C@H]1C2` [Example 921], the Ki in test [1] is less than 500 nM; in test [2], 500 to 50000 nM; in test [3], 500 to 50000 nM.

On to `CC1(C)[C@@H]2C[C@H]3OB([C@H](CCCCN)NC(=O)Cn4nc(-c5cccc([N+](=O)[O-])c5)nc4Cc4ccccc4)O[C@@]3(C)[C@H]1C2` [Example 923], for which the inhibition constant (Ki) in test [1] is less than 500 nM; in test [2], 500 to 50000 nM; in test [3] it was 500 to 50000 nM.

Consider `CC1(C)[C@@H]2C[C@H]3OB([C@H](CCCCN)NC(=O)Cn4nc(-c5cccc(N)c5)nc4Cc4ccccc4)O[C@@]3(C)[C@H]1C2` [Example 931], for which the results for the Ki in test [1], in test [2] and in test [3] were less than 500 nM, 500 to 50000 nM and 500 to 50000 nM, respectively.

With `COC(=O)Cc1nc(Cc2ccccc2)nn1CC(=O)N[C@@H](CCCCN)B1OC2CC3CC(C3(C)C)C2(C)O1` (stereo partly drawn) [Example 2443], the Ki was less than 500 nM in test [1], 500 to 50000 nM in test [2] and 500 to 50000 nM in test [3] (setting [4]).

With `CC1(C)C2CC3OB([C@H](CCCCN)NC(=O)Cn4nc(Cc5ccccc5)nc4-c4ccccc4)OC3(C)C1C2` (stereo partly drawn) [Example 2446], the Ki is less than 500 nM in test [1], 500 to 50000 nM in test [2] and 500 to 50000 nM in test [3] (setting [4]).

In the case of `CC1(C)C2CC3OB([C@H](CCCCN)NC(=O)Cn4nc(Cc5ccccc5)nc4Cc4ccccc4)OC3(C)C1C2` (stereo partly drawn) [Example 2447], the Ki in test [1] was less than 500 nM; in test [2], 500 to 50000 nM; in test [3] (setting [4]), 500 to 50000 nM.

On to `NCCCC[C@H](NC(=O)Cn1cnc(Cc2ccccc2)n1)B(O)O` [Example 2499], for which the Ki is less than 500 nM in test [1], 500 to 50000 nM in test [2] and 500 to 50000 nM in test [3] (setting [4]).

As to `NCCCC[C@H](NC(=O)Cn1nc(Cc2ccccc2)nc1-c1ccccc1)B(O)O` [Example 2533], the Ki is less than 500 nM in test [1], 500 to 50000 nM in test [2] and more than 500000 nM in test [3] (setting [4]).

Regarding `Cc1nc(-c2ccccc2)ncc1C(=O)N[C@@H](CCCCN)B1O[C@@H]2C[C@@H]3C[C@@H](C3(C)C)[C@]2(C)O1` [Example 3458, R-N^1-((2-phenyl-4-methylpyrimidin-5-yl)carbonyl)borolysine, (+)-pinanediol ester, hydrochloride], the Ki in test [1] is less than 500 nM; in test [2], more than 500000 nM; in test [3] (setting [4]), 500 to 50000 nM.

In the case of `Cc1nc(-c2ccccc2)ncc1C(=O)N[C@@H](CCCNC(=N)N)B1O[C@@H]2C[C@@H]3C[C@@H](C3(C)C)[C@]2(C)O1` [Example 3538, R-N^1-((2-phenyl-4-methylpyrimidin-5-yl)carbonyl)boroarginine, (+)-pinanediol ester, hydrochloride], the results for the Ki in test [1], in test [2] and in test [3] (setting [4]) were less than 500 nM, 500 to 50000 nM and 500 to 50000 nM, respectively.
